{"source": "patent US7608750B2", "about": "“Nonhuman model animal unresponsive to immunopotentiating synthetic compound” (Japan Science and Technology Agency, priority 2001, dated 2009)", "key": {"TLR7 knockout mice": {"tested_on": "TLR7 knockout mice", "assay": "Serum cytokines after intraperitoneal R-848, TLR7 knockout mice", "format": "in vivo, mouse", "settings": "50 nmol intraperitoneally, ELISA", "procedure": "(§1) It was examined in vivo whether TLR7 was involved in a response to R-848. The wild-type mice, MyD88 knockout mice or TLR7 knockout mice were injected intraperitoneally with 50 nmol of R-848, the sera were harvested after a predetermined period of time, and the concentration of IFN-α, TNF-α and IL12p40 in sera was determined by ELISA. […] On the contrary, the increment of these cytokines was not observed in TLR7 knockout mice."}, "[1]": {"tested_on": "macrophages derived from TLR7 knockout mice", "assay": "Intracellular signalling (NF-κB EMSA, JNK and IRAK in vitro kinase assay) in macrophages, TLR7 knockout", "format": "cell-based, mouse", "settings": "TLR7KO macrophages, 100 nM R-848", "procedure": "Next, the activation of intracellular signaling cascade to an antiviral immune-modulator was examined. Peritoneal macrophages (2×10^6 cells) from TLR7 knockout mice (TLR7KO) and wild-type mice respectively stimulated with thioglycollic acid, were stimulated with 100 nM of R-848 or 1.0 μM of CpGDNA 1668 (CpG) for a certain period of time, nucleoprotein was extracted, the extract obtained with the specific probe including NF-κB associated-site was incubated, electrophoresed, visualized by autoradiography, and NF-κB activation was examined as DNA-associated protein by electrophoretic mobility shift assay (EMSA). In FIG. 12, an arrow indicates induced NF-κB complexes, and an arrow head indicates a free probe.\nThe functional role of TLR7 in transactivation of NF-κB reporter gene induced by R-848 was examined. HEK293 cells were transiently cotransfected with TLR7 expression plasmids derived from human, and luciferase activity was measured before and after R-848 stimulation. The peritoneal macrophages derived from TLR7 knockout mice (TLR7KO) and wild-type mice stimulated with thioglycollic acid were stimulated with 100 nm of R-848 or 1.0 μM of phosphothioate modified CpGDNA 1668 (CpG), all cell lysate were prepared, immunoprecipated with anti-JNK antibody, and JNK activity was examined by In Vitro Kinase Assay using GST-c-Jun fusion protein as a substrate. The same lysate was blotted with anti-JNK antibody. Moreover, the lysate was immunoprecipated with anti-IRAK, and kinase activity of IRAK was examined by In Vitro Kinase Assay. The same lysate was blotted with anti-IRAK antibody. […] It is important to activate TLR7-MyD88-dependent signal pathway for the effect of imidazoquinoline in vivo."}, "[2]": {"tested_on": "splenic cells derived from wild-type mice", "assay": "Splenic cell proliferation ([3H] thymidine incorporation), wild-type", "format": "cell-based, mouse", "settings": "5×10^4 cells, cultured 48 h", "procedure": "As activated phenotypes were proliferated and expressed by stimulating B-lymphocytes with imidazoquinoline group compounds, the proliferation of splenic cells was examined (Cell. Immunol. 203, 55-62, 2000; J. Immunol. 165, 5552-5557, 2000). Splenic cells (5×10^4 cells) derived from TLR7 knockout mice (TLR7KO) and wild-type mice were stimulated with R-848 and CpGDNA at a predetermined concentration, cultured for 48 h (cultured by adding [^3H] thymidine for last eight hours), and measured the level of thymidine incorporation using a β scintillation counter. A mean value+/−S.D., obtained from representative experiment among triplicate experiments is shown."}, "MyD88 knockout mice": {"tested_on": "MyD88 knockout mice", "assay": "Serum cytokines after intraperitoneal R-848, MyD88 knockout mice", "format": "in vivo, mouse", "settings": "50 nmol intraperitoneally, ELISA", "procedure": "as §1"}, "[3]": {"tested_on": "peritoneal macrophages from wild-type mice", "assay": "Cytokine production by peritoneal macrophages (ELISA), wild-type", "format": "cell-based, mouse", "settings": "5×10^4 cells, presence or absence of 30 U/ml IFN-γ", "procedure": "2 ml of 4% thioglycollic acid medium (DIFCO) were injected into the intraperitoneals of the wild-type mice, TLR7 knockout mice (TLR7KO), MyD88 knockout mice (MyD88KO) and TLR9 knockout mice (TLR9KO), respectively, three days later, peritoneal exudate cells were isolated from intraperitoneal of each mouse, these cells were cultured in PRMI 1640 medium (GIBCO) added with 10% fatal bovine serum (GIBCO) at 37° C. for two hours, nonadherent cells were […] by washing with Hank's buffered salt solution (HBBS; GIBCO) at iced temperature, and the adherent cells were used as peritoneal macrophages in following experiment. Total RNA (10 μg) obtained from macrophages derived from the wild-type mice (+/Y) and TLR7 knockout mouse (TLR7KO) was electrophoresed, transferred onto a nylon membrane, and hybridized with a part of TLR7 DNA, and this membrane was rehybridized with β-actin probe. It was examined by the Northern blotting. From the results shown in FIG. 3, the expression of TLR7mRNA could not be found in TLR7 knockout mice.\nIn addition, the measurement of cytokine generated from peritoneal macrophages was executed as follows; […] peritoneal macrophages of 2×10^5 well or 5×10^4 well were cultured in 96-well plate respectively, and after stimulated with the above-mentioned reagents for 24 h, concentration of TNF-α, IL-12p40, IL-6 and/or IFN-α were measured by ELISA according to the manual.\nBefore examining the reactivity of TLR7 knockout mice to imiquimod and R-848 which are imidazoquinoline group compound, firstly imiquimod or R-848 were administered to BALB/c mice (wild-type) orally at the predetermined concentration, respectively, the concentration of IFN-α, TNF-α and IL-12 in serum were measured after two hours. […] The data is shown as a mean value+/−S.D. (N=3). Similarly, the ability of these compounds to activate immune cells via TLR was examined using imiquimod or R-848 respectively. The peritoneal macrophages (5×10^4 cells) from wild-type mice and MyD88 knockout mice prepared in example 2, were stimulated by imiquimod or R-848, in the presence or absence of 30 U/ml of IFN-γ, and the concentration of TNF-α and IL-12 produced by peritoneal macrophages were measured by ELISA. […] The data is shown as a mean value+/−S.D. (N=3)."}, "[4]": {"tested_on": "BMDC derived from wild-type mice", "assay": "Surface CD40, CD80, CD86 expression on bone marrow dendritic cells (flow cytometry), wild-type", "format": "cell-based, mouse", "settings": "stimulated 24 h", "procedure": "The reactivity to R-848 in dendritic cells derived from bone marrow (BMDC) derived from TLR7 knockout mice (TLR7KO) and the wild-type mice was examined. The bone marrow cells obtained from TLR7 knockout mice and wild-type mice were cultured for six days in RPMI-1640 medium supplemented with 10% fatal bovine serum and 10 ng/ml of GM-CSF (mouse granulocyte/macrophage colony stimulating factor). The obtained mouse undifferentiated dendritic cells were stimulated with R-848 or CpGDNA for 24 h, the cells were stained with biotinylated antibody to CD40, CD80 and CD86, and phycoerythrin (PE)-associated streptavidin was detected, which was analyzed by automated-cell analysing system (FACSCalibur). The results of examination of the expression of the molecules of CD40, CD80 and CD86 onto the surface of cells by flow cytometry are shown in FIG. 11. Similar to the case with CpGDNA, when BMDC derived from wild-type mice was stimulated with R-848, upregulation of CD40, CD80 and CD86 expression was induced. On the contrary, when BMDC derived from TLR7 knockout mice (TLR7KO) was stimulated with R-848, the expression of these molecules on cell surface was not enhanced."}}}
{"compound": "CCOCc1nc2c(N)nc3ccccc3c2n1CC(C)(C)O", "note": "[R-848, resiquimod]", "values": [{"measurement": "increment of IFN-α in sera", "setting": "TLR7 knockout mice", "value": "not observed"}, {"measurement": "increment of IL12p40 in sera", "setting": "TLR7 knockout mice", "value": "not observed"}, {"measurement": "increment of TNF-α in sera", "setting": "TLR7 knockout mice", "value": "not observed"}, {"measurement": "activation of c-Jun N terminal kinase (JNK)", "setting": "[1]", "value": "completely destructed"}, {"measurement": "enhanced DNA avidity of NF-κB transcription (EMSA)", "setting": "[1]", "value": "completely destructed"}, {"measurement": "phosphorylation of IRAK", "setting": "[1]", "value": "completely destructed"}, {"measurement": "proliferation of splenic cells ([3H] thymidine incorporation)", "setting": "[2]", "value": "showed proliferation depending on concentration"}, {"measurement": "concentration of IFN-α in sera", "setting": "MyD88 knockout mice", "value": "did not show any reactivity"}, {"measurement": "concentration of IL12p40 in sera", "setting": "MyD88 knockout mice", "value": "did not show any reactivity"}, {"measurement": "concentration of TNF-α in sera", "setting": "MyD88 knockout mice", "value": "did not show any reactivity"}, {"measurement": "IL-12 produced by peritoneal macrophages", "setting": "[3]", "value": "in large amount"}, {"measurement": "TNF-α produced by peritoneal macrophages", "setting": "[3]", "value": "in large amount"}, {"measurement": "CD40 expression on cell surface", "setting": "[4]", "value": "upregulation"}, {"measurement": "CD80 expression on cell surface", "setting": "[4]", "value": "upregulation"}, {"measurement": "CD86 expression on cell surface", "setting": "[4]", "value": "upregulation"}]}
